IC50 data for 28 compounds are collected here from patent US20230128402A1 (The Trustees of Princeton University, priority 2020, published 2023).

The structures appear in SMILES notation.

In experiment [1] the target is T1, ALDH1a3 (Homo sapiens, UniProt P47895).
T1 sequence (P47895 1-512): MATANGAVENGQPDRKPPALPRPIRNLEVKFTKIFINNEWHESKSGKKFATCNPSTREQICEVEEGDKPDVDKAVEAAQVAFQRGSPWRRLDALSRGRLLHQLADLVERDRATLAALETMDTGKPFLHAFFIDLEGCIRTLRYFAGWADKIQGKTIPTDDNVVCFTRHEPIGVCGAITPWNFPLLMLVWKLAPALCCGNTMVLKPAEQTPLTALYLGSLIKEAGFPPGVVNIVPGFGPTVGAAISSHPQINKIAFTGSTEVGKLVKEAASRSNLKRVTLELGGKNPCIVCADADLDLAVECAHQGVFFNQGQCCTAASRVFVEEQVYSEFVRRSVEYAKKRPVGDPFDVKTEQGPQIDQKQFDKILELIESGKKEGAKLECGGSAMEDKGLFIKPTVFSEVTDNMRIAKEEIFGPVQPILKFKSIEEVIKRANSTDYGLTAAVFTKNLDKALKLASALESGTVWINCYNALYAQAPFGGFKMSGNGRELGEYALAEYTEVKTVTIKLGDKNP
As to the kind of experiment: Aldh1a3 enzyme inhibition assay, recombinant hALDH1a3. Type of experiment: biochemical. Details: made in house; host or cells: E. coli BL21-DE3, pET-Aldh1a3. The settings on record: resorufin fluorescence, 20° C. The text has this: (§1) Recombinant enzyme and inhibitor added immediately before assay. Reaction rate measured by resorufin fluorescence.

Experiment [2] concerns the target T2, mALDH1a3 (Mus musculus, UniProt Q9JHW9).
T2 construct: made in house; host or cells: E. coli BL21-DE3, pET-Aldh1a3
T2 sequence (Q9JHW9 1-512): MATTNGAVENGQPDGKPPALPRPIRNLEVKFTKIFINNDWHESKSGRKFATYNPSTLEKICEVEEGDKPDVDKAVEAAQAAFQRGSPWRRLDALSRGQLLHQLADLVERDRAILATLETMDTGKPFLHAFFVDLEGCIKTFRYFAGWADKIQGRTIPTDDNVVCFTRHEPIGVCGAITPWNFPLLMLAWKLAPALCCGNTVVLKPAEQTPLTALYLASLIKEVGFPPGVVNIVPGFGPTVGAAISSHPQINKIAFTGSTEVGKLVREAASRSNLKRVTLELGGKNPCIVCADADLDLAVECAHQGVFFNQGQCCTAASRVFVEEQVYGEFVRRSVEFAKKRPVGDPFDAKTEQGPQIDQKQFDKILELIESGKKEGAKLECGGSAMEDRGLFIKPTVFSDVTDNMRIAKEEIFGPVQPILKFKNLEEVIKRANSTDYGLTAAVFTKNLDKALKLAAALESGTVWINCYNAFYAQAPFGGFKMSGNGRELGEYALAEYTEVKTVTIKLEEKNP
As to the kind of experiment: Aldh1a3 enzyme inhibition assay, recombinant mALDH1a3. Type of experiment: biochemical. Conditions: resorufin fluorescence, 20° C.
Text: as §1

Consider `CCc1c(C(=O)Nc2ccc3c(c2)CCC(=O)N3)ccnc1C` [Compound 55, 3-ethyl-2-methyl-N-(2-oxo-3,4-dihydro-1H-quinolin-6-yl)pyridine-4-carboxamide], for which the IC50 in experiment [1] and in experiment [2] was 250 to 1000 nM in each case.

As for `CCc1cnc(C)cc1C(=O)Nc1ccc2c(c1)CCC(=O)N2` [Compound 56, 5-ethyl-2-methyl-N-(2-oxo-3,4-dihydro-1H-quinolin-6-yl)pyridine-4-carboxamide], the values for the IC50 in experiment [1] and in experiment [2] were 100 to 250 nM and 250 to 1000 nM, respectively.

Consider `COCc1cnccc1C(=O)Nc1ccc2c(c1)CCC(=O)N2` [Compound 57, 3-(methoxymethyl)-N-(2-oxo-3,4-dihydro-1H-quinolin-6-yl)pyridine 4 carboxamide], for which the IC50 in experiment [1] and in experiment [2] was > 5000 nM throughout.

As to `CN(C)Cc1cnccc1C(=O)Nc1ccc2c(c1)CCC(=O)N2` [Compound 58, 3-[(dimethylamino)methyl]-N-(2-oxo-3,4-dihydro-1H-quinolin-6-yl)pyridine-4-carboxamide], the IC50 in experiment [1] and in experiment [2] was > 5000 nM in each case.

As for `CCCc1cnccc1C(=O)Nc1ccc2c(c1)CCC(=O)N2` [Compound 60, N-(2-oxo-3,4-dihydro-1H-quinolin-6-yl)-3-propyl-pyridine-4-carboxamide], the figures for the IC50 in experiment [1] and in experiment [2] were 100 to 250 nM and 250 to 1000 nM, respectively.

With `CCc1cnccc1C(=O)Nc1ccc2c(c1)CC1(CC1)C(=O)N2` [Compound 61, 3-ethyl-N-(2-oxospiro[1,4-dihydroquinoline-3,1′-cyclopropane]-6-yl)pyridine-4-carboxamide], the IC50 was 100 to 250 nM in experiment [1] and 1000 to 5000 nM in experiment [2].

Consider `CCc1cnccc1C(=O)Nc1ccc2c(c1)CC(C)(CC)C(=O)N2` (centres unmarked) [Compound 62, 3-ethyl-N-(3-ethyl-3-methyl-2-oxo-1,4-dihydroquinolin-6-yl)pyridine-4-carboxamide], for which the IC50 is 1000 to 5000 nM in experiment [1] and > 5000 nM in experiment [2].

On to `CCc1cnccc1C(=O)Nc1ccc2c(c1)CC(C)C(=O)N2` (centres unmarked) [Compound 63, 3-ethyl-N-(3-methyl-2-oxo-3,4-dihydro-1H-quinolin-6-yl)pyridine-4-carboxamide], for which the figures for the IC50 in experiment [1] and in experiment [2] were 100 to 250 nM and 250 to 1000 nM, respectively.

Turning to `CCc1cnccc1C(=O)Nc1ccc2c(c1)C(C)CC(=O)N2` (centres unmarked) [Compound 64, 3-ethyl-N-(4-methyl-2-oxo-3,4-dihydro-1H-quinolin-6-yl)pyridine-4-carboxamide], the results for the IC50 in experiment [1] and in experiment [2] were 100 to 250 nM and 250 to 1000 nM, respectively.

For `Cc1cc(C(=O)Nc2ccc3c(c2)CC2(CC2)C(=O)N3)c(Cl)cn1` [Compound 68], the results for the IC50 in experiment [1] and in experiment [2] were 1000 to 5000 nM and > 5000 nM, respectively.

Regarding `CC(C)=Cc1cnc(C)cc1C(=O)Nc1ccc2c(c1)CC(C)(C)C(=O)N2` [Compound 69], the IC50 in experiment [1] and in experiment [2] was > 5000 nM in each case.

Regarding `CCc1cnccc1C(=O)Nc1cc2c(cc1Cl)NC(=O)CC2` [Compound 70, N-(7-chloro-2-oxo-3,4-dihydro-1H-quinolin-6-yl)-3-ethyl-pyridine-4-carboxamide], the IC50 in experiment [1] is < 100 nM; in experiment [2], 250 to 1000 nM.

For the compound `C=CCc1cnccc1C(=O)Nc1ccc2c(c1)CCC(=O)N2` [Compound 71, 3-allyl-N-(2-oxo-3,4-dihydro-1H-quinolin-6-yl)pyridine-4-carboxamide], the figures for the IC50 in experiment [1] and in experiment [2] were 250 to 1000 nM and 1000 to 5000 nM, respectively.

As for `CCc1cccnc1C(=O)Nc1cc2c(cc1Cl)NC(=O)CC2` [Compound 72, N-(7-chloro-2-oxo-3,4-dihydro-1H-quinolin-6-yl)-3-ethyl-pyridine-2-carboxamide], the IC50 in experiment [1] and in experiment [2] was 250 to 1000 nM throughout.

Turning to `CCc1c[n+]([O-])ccc1C(=O)Nc1ccc2c(c1)CCC(=O)N2` [Compound 73, 3-ethyl-1-oxido-N-(2-oxo-3,4-dihydro-1H-quinolin-6-yl)pyridin-1-ium-4-carboxamide], the values for the IC50 in experiment [1] and in experiment [2] were 1000 to 5000 nM and > 5000 nM, respectively.

As for `CCc1cc(=O)n(C)cc1C(=O)Nc1ccc2c(c1)CCC(=O)N2` [Compound 76, 4-ethyl-1-methyl-6-oxo-N-(2-oxo-3,4-dihydro-1H-quinolin-6-yl)pyridine-3-carboxamide], the IC50 in experiment [1] and in experiment [2] was > 5000 nM throughout.

Take `CCc1cnc(F)cc1C(=O)Nc1ccc2c(c1)CCC(=O)N2` [Compound 78, 5-ethyl-2-fluoro-N-(2-oxo-3,4-dihydro-1H-quinolin-6-yl)pyridine-4-carboxamide]: the IC50 was < 100 nM in experiment [1] and 250 to 1000 nM in experiment [2].

As for `CCc1cnc(C)cc1C(=O)Nc1cc2c(cc1F)NC(=O)CC2` [Compound 79, 5-ethyl-N-(7-fluoro-2-oxo-3,4-dihydro-1H-quinolin-6-yl)-2-methyl-pyridine-4 carboxamide], the IC50 in experiment [1] and in experiment [2] was 250 to 1000 nM in each case.

As for `CCc1cnc(Cl)cc1C(=O)Nc1cc2c(cc1F)NC(=O)CC2` [Compound 80, 2-chloro-5-ethyl-N-(7-fluoro-2-oxo-3,4-dihydro-1H-quinolin-6-yl)pyridine-4-carboxamide], the IC50 was < 100 nM in experiment [1] and 250 to 1000 nM in experiment [2].

For `O=C1CCc2cc(NC(=O)c3ccncc3CC3CC3)c(F)cc2N1` [Compound 81, 3-(cyclopropylmethyl)-N-(7-fluoro-2-oxo-3,4-dihydro-1H-quinolin-6-yl)pyridine-4-carboxamide], the IC50 in experiment [1] and in experiment [2] was < 100 nM in each case.

Take `CCc1cnccc1C(=O)Nc1cc2c(cc1C#N)NC(=O)CC2` [Compound 84, N-(7-cyano-2-oxo-3,4-dihydro-1H-quinolin-6-yl)-3-ethyl-pyridine-4-carboxamide]: the IC50 in experiment [1] and in experiment [2] was 250 to 1000 nM each time.

Consider `CCc1cnccc1C(=O)Nc1ccc2c(c1F)CCC(=O)N2` [Compound 85], for which the IC50 in experiment [1] and in experiment [2] was > 5000 nM each time.

Take `N#Cc1cccc2nc(Nc3ccc4c(c3)CCC(=O)N4)ccc12` [Compound 86, 2-[(2-oxo-3,4-dihydro-1H-quinolin-6-yl)amino]quinoline-5-carbonitrile]: the IC50 in experiment [1] is > 5000 nM; in experiment [2], 1000 to 5000 nM.

Take `Cc1cccc2nc(Nc3ccc4c(c3)CCC(=O)N4)ccc12` [Compound 87, 6-[(5-methyl-2-quinolyl)amino]-3,4-dihydro-1H-quinolin-2-one]: the IC50 in experiment [1] was 250 to 1000 nM; in experiment [2], < 100 nM.

`N#Cc1ccc2nc(Nc3ccc4c(c3)CCC(=O)N4)ccc2c1` [Compound 88, 2-[(2-oxo-3,4-dihydro-1H-quinolin-6-yl)amino]quinoline-6-carbonitrile]: the IC50 in experiment [1] and in experiment [2] was > 5000 nM each time.

Turning to `Cc1ccc2nc(Nc3ccc4c(c3)CCC(=O)N4)ccc2c1` [Compound 89, 6-[(6-methyl-2-quinolyl)amino]-3,4-dihydro-1H-quinolin-2-one], the IC50 is > 5000 nM in experiment [1] and 1000 to 5000 nM in experiment [2].

As to `N#Cc1ccc2ccc(Nc3ccc4c(c3)CCC(=O)N4)nc2c1` [Compound 90, 2-[(2-oxo-3,4-dihydro-1H-quinolin-6-yl)amino]quinoline-7-carbonitrile], the IC50 in experiment [1] and in experiment [2] was > 5000 nM in each case.

As for `Cc1ccc2ccc(Nc3ccc4c(c3)CCC(=O)N4)nc2c1` [Compound 91, 6-[(7-methyl-2-quinolyl)amino]-3,4-dihydro-1H-quinolin-2-one], the IC50 in experiment [1] is > 5000 nM; in experiment [2], 1000 to 5000 nM.
